One assay relates to Melanoma (A375). The note with it: cited from earlier work.
In the next assay the test system is Ovarian tumor (ES-2). Conditions: cited from earlier work.
The test system of a further assay is Hepatic tumor (Hep3B). The note with it: cited from earlier work.
The subject of the next assay is Hepatic tumor (SNU182). Conditions: cited from earlier work.
A further assay concerns Hepatic tumor (SNU423). The note with it: cited from earlier work.
The subject of another assay is Breast tumor (R193). The note with it: cited from earlier work.
Another assay concerns Breast tumor (SKBR3). Conditions: cited from earlier work.
The subject of assay [1] is Pancreatic tumor (181/85P). Conditions: cited from earlier work.
The subject of a further assay is Gastric tumor (257P). Conditions: cited from earlier work.
The test system of another assay is Hs578T tumor cells. As to the kind of experiment: Apoptotic killing of Hs578T tumor cells (morphological alternations by microscopy/Hoechst, death factor processing by immunoblot). It counts as cell-based. The procedure: We have established an in vitro cell model and examined herpes simplex virus-induced apoptotic killing of tumor cells. In the first series of studies, we used a standard inducer of apoptotic killing. A protein kinase inhibitor (i.e., staurosporine) was used. Mammary tumor cells (Hs578T) were cultured and treated with staurosporine (0.1-2 μM) for about 12-18 hours. […] (FIG. 1).
Using Hs578T cells, we next examined whether herpes simplex virus (HSV) can induce apoptotic killing in these tumor cells. Standard methods were used to prepare wild-type HSV-1 (i.e., wtHSV-1). (Blaho et al.: Herpes Simplex Virus: Propagation, Quantification, and Storage. Current Protocols in Microbiology. Wiley & Sons. 14:1-23, 2005). Hs578T cells were infected with wtHSV-1 and examined for tumor cell apoptotic killing. A range of wtHSV-1 concentration was used and we observed that one particle of wtHSV-1 was sufficient to induce apoptotic killing of a tumor cell. Apoptotic killing was evaluated at 24-hour post infection by monitoring morphological alternations and presence of death factor processing as detailed above.
INFECTION OF TUMOR CELLS WITH HSV MUTANTS: Approximately 1×10^6 cells (i.e., tumor cells) were exposed to 10 plaque forming units (PFU) per ml of ΔICP27 virus in 1 ml of 5% NBCS for 1 hour at 37° C. After this adsorption step, the medium was removed and discarded. 3 ml of fresh 5 NBCS was then added. […]
MICROSCOPIC ANALYSIS OF HSV INFECTED TUMOR CELLS: The morphology of HSV infected cells was analyzed by phase contrast and fluorescence microscopy using an Olympus IX70/IX-FLA inverted fluorescence microscope. […]
For visualization of chromatin condensation in live cells, […] Hoechst 33258 (Sigma) per ml was added to the medium and allowed to incubate at 37° C. for 30 min. The percentage (%) of nuclei containing condensed chromatin was determined by dividing the number of brightly stained, small (condensed) nuclei by the total number of nuclei (uncondensed plus condensed) in a particular (640) microscopic field. At least 100 nuclei were counted for each data point. […]

The next assay concerns HEp-2 cells. As to the kind of experiment: Apoptotic killing of HEp-2 tumor cells (morphological alternations and death factor processing). It counts as cell-based, human. Conditions: for apoptotic killing (morphological alternations and death factor processing): doxorubicin 10 μM, etoposide 125 μM, data not shown. From the text: We also examined if a different type of herpes simplex virus (i.e., HSV-2) may induce apoptotic killing of tumor cells. Standard methods were used to prepare wild-type HSV-2 (i.e., wtHSV-2). (Blaho et al.: Herpes Simplex Virus: Propagation, Quantification, and Storage. Current Protocols in Microbiology. Wiley & Sons. 14:1-23, 2005). Tumor cells (human carcinoma HEp-2) were used and infected with wtHSV-2. […] In particular, wtHSV-2 caused both the morphological alternations and death factor processing (data not shown). Thus, infection of Hs578T and HEp-2 cells with wtHSV-1 and wtHSV-2, respectively, leads to substantial apoptotic killing of tumor cells.
We examined tumor cell killing by chemotherapeutic agents. In this study, HEp-2 cells were treated with varying amounts of doxorubicin and etoposide. Apoptotic killing was measured using the method detailed above. […] Thus, these tumor cells were sensitive to chemotherapeutic agents.
INFECTION OF TUMOR CELLS WITH HSV MUTANTS: Approximately 1×10^6 cells (i.e., tumor cells) were exposed to 10 plaque forming units (PFU) per ml of ΔICP27 virus in 1 ml of 5% NBCS for 1 hour at 37° C. After this adsorption step, the medium was removed and discarded. 3 ml of fresh 5 NBCS was then added. Cells were maintained at 37° C. for at least 18 hours.
MICROSCOPIC ANALYSIS OF HSV INFECTED TUMOR CELLS: The morphology of HSV infected cells was analyzed by phase contrast and fluorescence microscopy using an Olympus IX70/IX-FLA inverted fluorescence microscope. Images were acquired using a Sony DKC-5000 digital photo camera linked to a PowerMac workstation and processed through Adobe Photoshop.
For visualization of chromatin condensation in live cells, […] Hoechst 33258 (Sigma) per ml was added to the medium and allowed to incubate at 37° C. for 30 min. The percentage (%) of nuclei containing condensed chromatin was determined by dividing the number of brightly stained, small (condensed) nuclei by the total number of nuclei (uncondensed plus condensed) in a particular (640) microscopic field. At least 100 nuclei were counted for each data point. The percentage (%) of chromatin condensation is represented as the mean±SD of three independent experiments.
IMMUNOBLOT ANALYSIS OF HSV INFECTED TUMOR CELLS: Whole-cell protein extract was prepared using lysis buffer (50 mM Tris/HCl, pH 7.5, 150 mM NaCl, 1% Triton X-100,1% deoxycholate, 0.1% SDS) supplemented with 2 mM PMSF (freshly prepared stock), 1% Translysol, 0.1 mM L-1-chloro-3-(4-tosylamido)-4-phenyl-2-butanone, 0.01 mM L-1-chlor-3-(4-tosylamido)-7-amino-2-heptanon-hydrochloride. Protein concentrations were determined using a modified Bradford protein assay (Bio-Rad Laboratories). […]

For another assay, the system named is MCF-7. As to the kind of experiment: Apoptotic killing of MCF-7 breast tumor cells. The note with it: MCF-7 tumor cells. It counts as cell-based.

Structures are written as SMILES.

With `O=c1[nH]cc(F)c(=O)[nH]1` [5-Fluorouracil, 5-fluorouracil], the “Resistant or Sensitive to Chemotherapeutic Agents” value (from here on “Resistant or Sensitive”) in the assay on Melanoma (A375) is listed as “Resistant”; with Ovarian tumor (ES-2), “Sensitive”; with Hepatic tumor (Hep3B), “Resistant”; in the assay with Hepatic tumor (SNU182), “Resistant”; in the assay with Hepatic tumor (SNU423), “Resistant”; with Breast tumor (R193) it was “Sensitive”. In addition, the “Resistant or Sensitive” value in the assay on Breast tumor (SKBR3) is reported as “Sensitive”; in assay [1] it was “Sensitive”; in the assay on Gastric tumor (257P), “Resistant”.

`N.N.[Cl][Pt][Cl]` [Cisplatin, cisplatin]: the “Resistant or Sensitive” value with Melanoma (A375), in the assay with Ovarian tumor (ES-2), in the assay with Hepatic tumor (Hep3B), with Hepatic tumor (SNU182), with Hepatic tumor (SNU423) and with Breast tumor (R193) was “Resistant” in each case. Besides, the “Resistant or Sensitive” value (in the assay on Breast tumor (SKBR3); in assay [1]; in the assay with Gastric tumor (257P)) was “Resistant” throughout.

With `C[C@@H]1C[C@@H]([C@H](O)CC2CC(=O)NC(=O)C2)C(=O)[C@@H](C)C1` [Cycloheximide, cycloheximide], the apoptotic effects entry in the assay with Hs578T tumor cells (cycloheximide alone, data not shown) is on record as “no apparent apoptotic effects”.

As to `COc1cccc2c1C(=O)c1c(O)c3c(c(O)c1C2=O)C[C@@](O)(C(=O)CO)C[C@@H]3O[C@H]1C[C@H](N)[C@H](O)[C@H](C)O1` [Doxorubicin, doxorubicin], the “sensitivity of tumor cells to chemotherapeutic agent” value in the assay on HEp-2 cells is “sensitive”. Besides, in the assay on HEp-2 cells, the “apoptotic killing (morphological alternations and death factor processing)” value is “induce morphological alternations and death factor processing”. Further, the “resistance of tumor cells to chemotherapeutic agent (drug-induced apoptosis)” value in the assay on MCF-7 was “resistant”. In addition, the “Resistant or Sensitive” value in the assay with Melanoma (A375), in the assay on Ovarian tumor (ES-2), in the assay on Hepatic tumor (Hep3B), with Hepatic tumor (SNU182), in the assay with Hepatic tumor (SNU423) and with Breast tumor (R193) was “Resistant” throughout. Moreover, the “Resistant or Sensitive” value (in the assay with Breast tumor (SKBR3); in [1]; with Gastric tumor (257P)) was “Resistant” in each case.

With `COc1cc([C@@H]2c3cc4c(cc3[C@@H](O[C@@H]3O[C@@H]5CO[C@@H](C)O[C@H]5[C@H](O)[C@H]3O)[C@H]3COC(=O)[C@H]23)OCO4)cc(OC)c1O` [Etoposide, etoposide], in the assay on HEp-2 cells, the “sensitivity of tumor cells to chemotherapeutic agent” value is “sensitive”. Also, the “apoptotic killing (morphological alternations and death factor processing)” value in the assay with HEp-2 cells is “induce morphological alternations and death factor processing”. The “resistance of tumor cells to chemotherapeutic agent (drug-induced apoptosis)” value in the assay on MCF-7 is on record as “resistant”. Besides, the “Resistant or Sensitive” value with Melanoma (A375), in the assay on Ovarian tumor (ES-2), with Hepatic tumor (Hep3B), in the assay with Hepatic tumor (SNU182), in the assay with Hepatic tumor (SNU423) and with Breast tumor (R193) was “Resistant” each time. Further, the “Resistant or Sensitive” value (in the assay with Breast tumor (SKBR3); in [1]; in the assay on Gastric tumor (257P)) was “Resistant” in each case.

As for `CC(=O)O[C@H]1C(=O)[C@@]2(C)[C@H]([C@H](OC(=O)c3ccccc3)[C@]3(O)C[C@H](OC(=O)[C@H](O)[C@@H](NC(=O)c4ccccc4)c4ccccc4)C(C)=C1C3(C)C)[C@]1(OC(C)=O)CO[C@@H]1C[C@@H]2O` [Paclitaxel, paclitaxel], the “Resistant or Sensitive” value in the assay with Melanoma (A375) was “Sensitive”; in the assay with Ovarian tumor (ES-2), “Resistant”; with Hepatic tumor (Hep3B) it was “Resistant”; in the assay with Hepatic tumor (SNU182) it was “Resistant”; in the assay on Hepatic tumor (SNU423), “Sensitive”; in the assay with Breast tumor (R193) it was “Sensitive”. For the same compound, the “Resistant or Sensitive” value (with Breast tumor (SKBR3); in assay [1]; in the assay on Gastric tumor (257P)) was “Sensitive” in each case.

As for `CN[C@@H]1C[C@H]2O[C@@](C)([C@@H]1OC)n1c3ccccc3c3c4c(c5c6ccccc6n2c5c31)C(=O)NC4` [Staurosporine, staurosporine], the “Death Factor Processing Poly(ADP-ribose) Polymerase, Procaspase 3, and DNA Fragmentation Factor-45” value in the assay with Hs578T tumor cells (immunoblot) was “drastic death factor processing”. In the assay with Hs578T tumor cells (staurosporine 0.1-2 μM, about 12-18 hours, mean±SD of three independent experiments), the “chromatin condensation (percentage of nuclei containing condensed chromatin)” value worked out at 86±14%.

These data come from US20140308668A1, “Method of Determining Susceptibility of a Tumor Cell to a Chemotherapeutic Agent: Novel Use of Herpes SImplex Virus” (priority 2008, published 2014).
